# Literature values as cited in US20110136913A1, “ASSESSING AND TREATING BREAST CANCER PATIENTS” (priority 2008, published 2011).
# Tested on: MCF-7 cell lines that stably over express exogenous HER-2
# Settings: MCF-7 cells over expressing HER-2, mouse model
compound,measurement,value
CC/C(=C(\c1ccccc1)c1ccc(OCCN(C)C)cc1)c1ccccc1 [tamoxifen],Effect on tumor growth,potent agonist on tumor growth
